Source: patent US11612553B2, “Oral care product and methods of use and manufacture thereof” (Colgate-Palmolive Company, priority 2008, dated 2023)

System: S. sanguis
Assay: Ammonia production by S. sanguis at pH 4.0
Format: cell-based
Settings: mean of 6 trials; 5 millimolar amino acid, pH 4.0, 0.1% sucrose, 37° C., 30 minutes
Protocol: An overnight culture of S. sanguis was grown at 37° C. in trypticase soy broth (Becton Dickinson, Sparks, Md.). The culture was centrifuged at 5,000 rpm for 5 minutes at 1 milliliter at a time into preweighed tubes in order to accumulate approximately 5 milligrams of wet pellet weight. The pellet was then resuspended into 20 millimolar potassium phosphate buffer (JT Baker, Phillipsburg, N.J.), pH 4.0, to simulate a stressed environment for the bacterial cell where ammonia would be produced for survival. The final concentration was 5 milligram per milliliter. To this final concentration, a 5 millimolar final concentration of L-arginine, L-citrulline, or L-ornithine was added along with a 0.1% final concentration of sucrose (VWR, West Chester, Pa.). This mixture was then incubated at 37° C. in a shaking water bath for 30 minutes before ammonia production was determined.
In order to analyze for ammonia, an Ammonia Assay kit was used from Diagnostic Chemicals Limited (Oxford, Conn.). The intended use of this specific kit is for the in vitro quantification of ammonia in plasma, but the procedure was modified in order to determine and quantify the ammonia production in plaque and/or bacteria.

SMILES	Ammonia, Mean [ppm]
N=C(N)NCCC[C@H](N)C(=O)O [L-Arginine, L-arginine]	1.06
NC(=O)NCCC[C@H](N)C(=O)O [L-Citrulline, L-citrulline]	0.951
